The test system of experiment [1] is A549. Kind of experiment: Alamar Blue proliferation assay, A549. It is filed as cell-based. The note with it: Homo sapiens, 96 h; A549, 0-40 μM, 0.5% serum, 4 days; read-out: IC50 for growth inhibition. The method, then: The effect of SR13904 on the proliferation of these cell lines was determined by an Alamar Blue assay. Exponentially growing cells were treated with a range of SR13904 concentrations (0-40 μM; in 0.5% serum) over 4 days and proliferation curves were determined. The IC50 values for growth inhibition by SR13904 for each cell line were determined. […] In addition, colony formation assays with SR13904 were performed with both A549 and Huh7 cells.

The target in experiment [2] is T1, PPARδ (Homo sapiens, UniProt Q03181).
T1 construct: expressed in transfected cells; host or cells: U2-OS (human bone cancer line)
T1 sequence (Q03181 1-441): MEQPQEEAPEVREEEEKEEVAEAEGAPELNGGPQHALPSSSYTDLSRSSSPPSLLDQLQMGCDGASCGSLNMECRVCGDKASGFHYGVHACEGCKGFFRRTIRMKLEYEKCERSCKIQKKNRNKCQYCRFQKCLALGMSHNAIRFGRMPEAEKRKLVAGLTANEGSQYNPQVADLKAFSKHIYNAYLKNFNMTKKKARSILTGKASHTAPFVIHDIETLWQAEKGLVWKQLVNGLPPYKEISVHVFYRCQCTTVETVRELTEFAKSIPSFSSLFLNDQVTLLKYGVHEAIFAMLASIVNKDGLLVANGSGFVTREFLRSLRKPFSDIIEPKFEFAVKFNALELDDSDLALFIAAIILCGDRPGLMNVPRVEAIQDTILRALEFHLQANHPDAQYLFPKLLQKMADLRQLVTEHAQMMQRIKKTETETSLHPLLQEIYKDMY
Description: PPRE promoter/luciferase reporter (transactivation) assay in U2-OS cells. It is filed as cell-based. On the procedure: General Testing Procedures. Each ligand was screened for PPARδ binding and transactivation activity through the use of two complementary reporter assays as described below. In both systems, transfection efficiency was standardized by co-transfection of a control Renilla luciferase. U2-OS (human bone cancer line) cells were used for both assays because this is the cell line of choice for screening PPAR ligands. At 18 h post-transfection, GW 501, with and without the ligands of the disclosure, was added to the cells and incubated for an additional 24 h. The cells were then harvested and luciferase activities profiled.
A promoter/luciferase reporter assay. This assay involves co-transfection of a PPARδ expression vector and a plasmid containing a luciferase gene under the control of PPARδ responsive DNA element (three copies of a consensus PPAR response element, PPRE). This assay was used to directly test ligand effects on PPARδ-responsive genes.
Referring to FIG. 3, U2-OS cells were transiently transfected with appropriate expression and reporter vectors. Ligands were added to the cell cultures 24 h post-transfection and incubated for an additional 16 h. Lipoprotein lipase (LPL; 2 μg/ml) was added with VLDL (5 μg/ml) to release PPARδ-active triglycerides. FIG. 3A: PPARδ LBD/Gal4/UAS-tk-luc competition assays with VLDL SR13904 (0-10 μM). The reporter activation (fold increase over blank) is presented relative to GW501516 at 7 nM (fold increase over blank=100). FIG. 3B: PPRE reporter assays using 0, 1, and 10 μM SR13904+VLDL. All assays were repeated in triplicate.
(A reporter such as luciferase makes a cellular process visible.)

Experiment [3] concerns the target T2, PPARγ LBD (Homo sapiens, UniProt P37231).
T2 construct: expressed in transfected cells; host or cells: U2-OS (inferred from the general testing procedure)
T2 sequence (P37231 238-503 limits assumed): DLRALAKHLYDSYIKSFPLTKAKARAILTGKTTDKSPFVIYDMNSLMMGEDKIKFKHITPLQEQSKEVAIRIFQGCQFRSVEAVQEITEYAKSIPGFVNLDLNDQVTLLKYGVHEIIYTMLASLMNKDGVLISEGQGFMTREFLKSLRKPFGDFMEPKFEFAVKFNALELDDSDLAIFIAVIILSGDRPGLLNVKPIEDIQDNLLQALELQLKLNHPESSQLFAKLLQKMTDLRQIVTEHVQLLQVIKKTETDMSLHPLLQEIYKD
Kind of experiment: PPARγ LBD binding and transactivation (ciglitazone competition). It is filed as cell-based. The following applies: data not shown. The text has this:
Based on the cellular and molecular data generated, treatment of prostate cancer cells with SR 13904 attenuates a number of pro-tumorigenic activities that are likely to be associated with PPARδ. Furthermore, this nuclear receptor is now believed to be a master regulator of nuclear receptors, including both PPARγ and PPARα, and as such the inhibition of PPARδ activity modulates the other target transcription factors.

Experiment [4] deals with A549 cells. Kind of experiment: Apoptosis, Cell Death Detection ELISA (DNA fragmentation) in A549 cells. It is filed as cell-based, human. The note with it: A549, 0.5% serum, SR13904 15 μM, 40 h. On the procedure: Referring now to FIG. 6, SR13904 treatment of cancer cells results in increased apoptosis. A549 cells (2×10^4 cells/well) were incubated in 0.5% media (96 well plates) SR13904 for 40 h. The relative degrees of apoptosis were determined using a Cell Death Detection ELISA (Roche). SR represents SR13904. ***p=<0.001 SR vs. SR+GW501.
SR13904 treatment results in increased apoptosis. Down-regulation of PPARδ, either by genetic knockout or by the treatment with 13-S—HODE (15-lipoxygenase-1 product), induces apoptosis in colorectal cancer cells. The effects of SR13904 (15 μM) GW501 (1 μM) on survival of A549 cells (0.5% serum) was determined. Relative degrees of apoptosis were measured using a DNA fragmentation assay.

The IC50 is the midpoint of a concentration-inhibition curve. Regarding `Cc1cc(SCc2sc(-c3cccc4ccccc34)nc2C)ccc1OCC(=O)O` [SR 13904], the IC50 in experiment [1] lay in the range of 8 to 10 µM. In addition, the “inhibition of PPARδ-mediated transactivation” value in experiment [2] is given as “appear to inhibit”. Also, the “reporter expression via PPRE in combination with GW 501” value in experiment [2] (1 μM ligand) was “significantly decreased”; in experiment [2] (10 μM ligand), “completely inhibited”. Further, in experiment [2] (1 and 10 μM ligand with GW501), the “transcription activation of the PPRE reporter to GW501” value was “completely eliminated”. In addition, the “VLDL-related activation of the PPAR promoter element (PPRE) construct” value in experiment [2] (co-treatment with 1 μM) is recorded as “completely block”. In experiment [3], the “interference with ciglitazone binding to PPARγ LBD and transactivation” value is on record as “interfere with ciglitazone binding”. The “apoptosis (DNA fragmentation)” value in experiment [4] is given as “significant apoptotic effect”.

For the origin of these results see patent publication US20090163481A1, “PPAR-DELTA LIGANDS AND METHODS OF THEIR USE” (priority 2007, published 2009).
